Data taken from patent US10690672B2, “Methods for breast cancer treatment” (GEORGE MASON UNIVERSITY, priority 2015, dated 2020).

Columns and labels:
breast cancer [1] = test: Bayesian analysis (MCMC simulation on I-SPY 2 data): probability of superiority to control and of Phase III success; format: in vivo, human
Text: Bayesian analysis was completed using the MCMC simulation based on I-SPY 2 data with the following model: pCR˜HR+HER2+biomarker+treatment+treatment*HR+treatment*HER2+treatment*biomarker. No multiple comparison adjustments were applied. The Bayesian analytical engine developed by Don Berry (Yee et al J Clin Oncol. 2012 Dec. 20; 30(36):4584-6), is a mathematical approach that evaluates the clinical performance of a drug (in this case, neratinib) in both the treatment arm (in this case tumor shrinkage estimates by size changes observed by MRI), coupled with complete pathological response (pCR) as measured as the final response determinant, and the response of the predicate therapy in the control arm. This evaluation determined success of a given therapy for a Phase III trial, and in this case, it was determined that phosphorylation of EGFR at Y1173 was not only statistically significant at predicting or assessing response to neratinib in all patients regardless of hormone receptor levels and HER2 levels (HER2+, HER2− and HR+ and HR−), but when patients with high levels of phosphorylated EGFR (Y1173) were added to the HR−/HER2+ subgroup, the prevalence of ‘biomarker-positive’ patients increased by 50%, while increasing the predicted probability of Phase III success to 90%. Moreover, when EGFR Y1173 was used as a single marker, a statistically significant increase in Phase III success was determined for all patients compared to HER2+/HR− status as measured by immunohistochemical methods. (93% vs 87%).

breast cancer [2] = test: I-SPY 2 TRIAL: pathological complete response (pCR) to neratinib plus standard chemotherapy vs concurrent control
Method: Subjects providing samples (pre-treatment biopsies) for studies described herein were characterized based on measurement of estrogen/hormone receptor (HR) and HER2 (c-erbB2), and were described by HER2−/HR−. HER2+/HR+. HER2+/HR−, HER2−/HR+ phenotypes. Response to treatment was determined by the amount of tumor shrinkage and a lack of appreciable tumor evident at surgery. A response of tumor shrinkage and/or lack of tumor when examined (such as at surgery) is referred to herein as “complete pathological response” (pCR), and has recently been deemed by the US FDA as an appropriate clinical endpoint for therapeutic approval. Neratinib is a therapeutic agent with a mechanism of action that is as a tyrosine kinase inhibitor that binds to and inhibits c-erbB2 and EGFR protein activity and the respective linked downstream pathways. […] Methods described herein may comprise obtaining measurements of the amounts proteins from a subject sample using a protein array technology developed by the inventors, and is referred to herein as “reverse phase protein microarray” (RPPA). This microarray allows for quantitative measurement of the amount of proteins and/or phosphorylated proteins in the tumor or cancerous cells from pretreatment sample, for example from biopsy specimens of women with Stage II/III breast cancer.
This example tested the hypothesis that the response to the pan-ERBB inhibitor, neratinib, was predicted by pre-treatment HER2-EGFR signaling. […] All patients received at least standard chemotherapy (which was comprised of 12 weekly cycles of paclitaxel (a taxane) therapy followed by 4 cycles of doxorubicin/cyclophosphamide (AC) therapy). For HER2+ patients, neratinib was administered in place of trastuzumab, and all HER2+ control arm patients received chemotherapy plus trastuzumab. 18 HER family signaling proteins were evaluated as biomarkers of neratinib response using reverse phase protein microarray (RPMA) data from pre-treatment laser capture microdissection (LCM) purified tumor epithelium.
Eighteen (18) protein/phosphoproteins biomarkers relating to HER family signaling were evaluated: AKT S473, AKT T308, EGFR, EGFR Y1068, EGFR Y1148, EGFR Y1173, EGFR Y992, ERBB2, ERBB2 Y1248, ERBB3 total, ERBB3 Y1289, ERK1/2 T202/Y204, Heregulin, mTOR, mTOR S2448, PI3K p85 Y458/p55 Y199, PTEN S380, and SHC Y317. This study assessed association between biomarker and response in the neratinib and control arms alone (likelihood ratio test), and relative performance between arms (biomarker×treatment interaction) using a logistic model. Analysis was also performed adjusting for HR/HER2 status.

## CCOc1cc2ncc(C#N)c(Nc3ccc(OCc4ccccn4)c(Cl)c3)c2cc1NC(=O)/C=C/CN(C)C [Neratinib]
Breast cancer [1]; EGFR Y1173 High
  Prob > CTRL (probability of Neratinib superiority to control): 0.99
  Prob Ph III Success: 0.93
Breast cancer [1]; EGFR Y1173 used as a single marker, all patients
  probability of Phase III success: 93%
Breast cancer [1]; HER2+/HR− status by immunohistochemical methods
  probability of Phase III success: 87%
Breast cancer [1]; HR−/HER2+
  Prob > CTRL (probability of Neratinib superiority to control): 0.97
  Prob Ph III Success: 0.87
Breast cancer [1]; HR−/HER2+ AND EGFR Y1173 High
  Prob > CTRL (probability of Neratinib superiority to control): 0.99
  Prob Ph III Success: 0.95
Breast cancer [1]; HR−/HER2+ OR EGFR Y1173 High
  Prob > CTRL (probability of Neratinib superiority to control): 0.99
  Prob Ph III Success: 0.9
Breast cancer [1]; patients with high phosphorylated EGFR (Y1173) added to the HR−/HER2+ subgroup
  predicted probability of Phase III success: 90%
Breast cancer [2]; EGFR Y1173 High patients added to the graduating HR−/HER2+ subset
  OR associated with treatment (pCR): 3.2
Breast cancer [2]; EGFR Y1173 High vs Low, neratinib arm relative to control arm
  odds ratio (OR) of pCR between EGFR Y1173 groups in the N relative to control arm: 10.1
Breast cancer [2]; HER2+/HR− subtype
  clinical response: statistically significant clinical response
Breast cancer [2]; HR−/HER2+ patients, EGFR Y1173 High, neratinib arm
  pCR rate: 12/18 (67%)
Breast cancer [2]; HR−/HER2+ patients, EGFR Y1173 Low, neratinib arm (neratinib in place of trastuzumab + paclitaxel then AC)
  pCR rate: 0/4 (0%)
Breast cancer [2]; HR−/HER2+ signature
  OR associated with treatment (pCR): 2.1
Breast cancer [2]; I-SPY 2 TRIAL, HR−/HER2+ signature
  trial outcome (graduation): graduated
Breast cancer [2]; Not HR−/HER2+ patients, EGFR Y1173 High, neratinib arm
  pCR rate: 24/57 (42%)
Breast cancer [2]; Not HR−/HER2+ patients, EGFR Y1173 Low, neratinib arm
  pCR rate: 3/27 (11%)
Breast cancer [2]; regardless of HER2/HR status
  pCR by subtype: pCR was observed in every subtype
